# Measurements taken from US20260232847A1, “Nanoparticles For Imaging And Treatment Of Arthritis And Inflammatory Joint Diseases” (Cornell University, priority 2023, published 2026).
# Key:
# [1] = In vivo joint clearance pharmacokinetics after intraarticular injection, longitudinal IVIS fluorescence imaging; parameters: species or system rat
# Method: Animals. All procedures were performed according to protocols approved by the Institutional Animal Care and Use Committee (IACUC) or Cornell University. Sprague Dawley male rats ([…], 300-325 g; Charles River Laboratories, Wilmington, MA) were housed in pairs under a standard 12 h light/dark cycle starting at 6:00 a.m. The animals were allowed to move freely in their cages, fed a low-fluorescence commercial diet (Teklad 2914) and were allowed access to tap water.
# Animal Study Design. Rats were randomly assigned to (1) unoperated controls (naïve) and (2) those receiving ipsilateral anterior cruciate ligament transection (ACLT) and contralateral sham to model arthritic pathological joint changes (FIGS. 9A and B). Naïve rats were further split into pilot studies for intraarticular bilateral injection of Cy5 free fluorophore (n=2), unilateral C′ Dot injection with contralateral saline (n=4), and bilateral C′ Dot injection (n=4). Animals that received bilateral surgery were further split into groups where one group received no intraarticular injections (n=4) and one group received bilateral intraarticular injection of C′ Dots one week post-operatively (n=6). Selected animals underwent ACLT surgery on a randomly assigned knee via an open surgical approach under 2.5% isoflurane anesthesia at 1 L/min O2, as previously described. Complete transection of the ACL was confirmed by a cranial drawer test. A single dose of Ethiqa XR (slow release buprenorphine) was administered subcutaneously at 0.65 mg/kg just prior to ACLT surgery. The animals could ambulate, eat, and drink ad libitum after surgery.
# Intraarticular injection. Under 3% isoflurane anesthesia, the lower abdominal region (distal to sternum) including the front and back of both stifles was clipped to remove fur and sterilized with three alternating wipes of iodine and ethanol. […]
# In vivo longitudinal fluorescence imaging. Longitudinal fluorescence images of rats receiving Cy5 or C′ Dot intraarticular injections were recorded using the In Vivo Imaging System (IVIS) Kinetic (Perkin Elmer; Waltham, MA) over one week for Cy5 injection at the following timepoints: 0, 1, 2, 4, 8, 12, 24, 48, and 72 h, and at 7 d (FIG. 9S3). […] Each week, rat fur was clipped as described above and animal weights were recorded. […] Fluorescence was set at 640 nm/680 nm excitation/emission optimized for Cyanine-5 and C′ Dots.
# IVIS image analysis. […] Total Radiant Efficiency (TRE) (area sum of ((p/sec/cm^2/sr)/(ρW/cm^2))) was recorded for each stifle at each time point for the duration of imaging. Average TRE from saline-injected stifles (n=4) was subtracted from all stifle TRE measurements as tissue fluorescence background. […]
# [2] = in vivo; cited from earlier work
# [3] = in vitro; cited from earlier work
"time constant τ, single exponential decay ([1]; naïve knees, Eq 2)",time after which fluorescence was undetectable ([1]; naïve rat knees),"time of signal peak ([1]; naïve rat knees, Cy5 dye injection)","half-life t1/2,1 ([1]; t1/2=ln(2)*τ)",Compound,half-life in the knee / joint half-life [2],duration of anti-inflammatory effects [3]
0.6 h,3 days,0 h,0.4 h,"CN1C(=CC=CC=CC2=[N+](CCCCCC(=O)O)c3ccc(S(=O)(=O)O)cc3C2(C)C)C(C)(C)c2cc(S(=O)(=O)[O-])ccc21 [Cy5, Sulfo-Cyanine-5-carboxylic acid]",,
,,,,"anakinra: established DMARD, anakinra (Kineret)",24 h,2 days
